Test results: the NIST ThermoML archive (doi:10.1021/je8004613)

Experiment: xn = mol fraction of the nth substance listed
Conditions: 101 kPa, Liquid; for speed of sound: Pulse-echo method; for mass density: Vibrating tube method

COC(C)(C)C [2-methoxy-2-methylpropane] + CCCCCCCC
Conditions	mass density, 288.15 K [kg/m3]	mass density, 293.15 K [kg/m3]	mass density, 298.15 K [kg/m3]	mass density, 303.15 K [kg/m3]	mass density, 308.15 K [kg/m3]	speed of sound, 288.15 K [m/s]	speed of sound, 293.15 K [m/s]	speed of sound, 298.15 K [m/s]	speed of sound, 303.15 K [m/s]	speed of sound, 308.15 K [m/s]
x1 = 0.0681	708.15	704.08	700.01	695.91	691.79	1205.4	1184.6	1163.5	1142.6	1121.8
x1 = 0.1226	709.47	705.36	701.24	697.1	692.93	1198.4	1177.6	1156.3	1135.4	1114.7
x1 = 0.2056	711.65	707.48	703.29	699.07	694.83	1187.6	1166.7	1145.4	1124.3	1103.4
x1 = 0.3046	714.48	710.23	705.96	701.64	697.3	1174.2	1153.1	1131.8	1110.5	1089.4
x1 = 0.4001	717.54	713.19	708.81	704.4	699.96	1161.4	1140.2	1118.7	1097.1	1075.9
x1 = 0.4535	719.37	714.96	710.53	706.06	701.56	1154.3	1132.9	1111.2	1089.6	1068.2
x1 = 0.4947	720.85	716.4	711.92	707.4	702.84	1148.7	1127.2	1105.4	1083.8	1062.3
x1 = 0.5442	722.73	718.21	713.67	709.09	704.48	1142	1120.6	1098.7	1077	1055.3
x1 = 0.5996	724.94	720.36	715.75	711.1	706.42	1134.7	1113	1091	1069.1	1047.5
x1 = 0.6916	728.91	724.2	719.47	714.7	709.89	1122.5	1100.6	1078.4	1056.2	1034.3
x1 = 0.8001	734.16	729.3	724.41	719.47	714.49	1108.1	1085.8	1063.2	1040.8	1018.6
x1 = 0.9007	739.68	734.66	729.6	724.5	719.35	1095.1	1072.6	1049.6	1026.9	1004.2
x1 = 0.9487	742.54	737.44	–	727.1	721.86	1089	1066.2	1043.1	1020.1	997.3
